We go through six substances from article PMC10122656, “Siglec-6 mediates the uptake of extracellular vesicles through a noncanonical glycolipid binding pocket” (Nature Communications, 2023).

One assay has as its target T1, Siglec-7-Fc R124A (Homo sapiens, UniProt Q9Y286, R124A).
T1 construct: the Siglecs as Fc chimeras; made in house; host or cells: WT CHO cells
Briefly: Liposome over lectin assay (LOLA). The format is binding. The conditions noted are these: Siglec-7 R (arginine mutant); replicates. Here is the method: (§1) Siglec-Fc constructs designed by Rodrigues et al.[30] were used in this work. Siglec-Fc constructs were expressed using WT CHO cells in cell culture media as described above with 1% HEPES. Cells incubated as described above for one-week post confluency. The supernatant was harvested and stored at 4 °C.
(§2) The purification was heavily inspired by Rodrigues et al.[30]. The purification of the Siglec-Fcs from supernatant began with Ni^2+ affinity chromatography using an AKTA FPLC equipped with a HisTrap Excel column (GE). The column was equilibrated with fifteen column volumes (CVs) of equilibrium buffer (500 mM NaCl, 20 mM NaPO4H2, pH 7.4). The Siglec-Fc containing supernatant was then loaded in its entirety onto the column. The column was then washed with fifteen CVs of wash buffer (500 mM NaCl, 30 mM imidazole, 20 mM NaPO4H2, pH 7.4). The Siglec-Fc was then eluted in 20 in 1 mL fractions with twenty CVs of elution buffer (500 mM NaCl, 500 mM imidazole, 20 mM NaPO4H2, pH 7.4). Fractions containing Siglec-Fc were compiled and then prepared for the next stage of purification by diluting the fractions 1:4 with buffer W (100 mM Tris–HCl, 150 mM NaCl, 1 mM EDTA, pH 8.0). A Strep-Tactin column (IBA life sciences) was washed with fifteen CVs of buffer W. The Siglec-Fc-buffer W solution was then loaded in its entirety onto the column. The bound Siglec-Fc was then washed with fifteen CVs of buffer W. Siglec-Fc was eluted from the column with 15 column volumes of buffer E (100 mM Tris–HCl, 150 mM NaCl, 1 mM EDTA, 10 mM d-Desthiobiotin, pH 8.0). Fractions containing Siglec-Fc were pooled and dialyzed against PBS to remove any d-Desthiobiotin. After dialysis, Siglec-Fcs were concentrated using an ultra-centrifugal device (30 kDa MWCO) and aliquoted into 5 µg aliquots, and frozen. The Siglec-Fcs were then lyophilized overnight, and the lyophilized Siglec-Fcs were stored at −20 °C.
(§3) Siglec-Fc in PBS was adsorbed to a 96-well flat-bottom fluorescent microplate by adding 1 µg/well and incubating the plate at 4 °C overnight. The plate was then washed with PBS followed by blocking with 5% (m/V) BSA in PBS for 1 h at room temperature. The plate was again washed with PBS and 100 µM liposome in PBS was added to each well. The plate was then incubated at 37 °C for 30 min followed by washing with PBS. PBS was then added to the plate and the fluorescence intensity (λex 640 nm, λem 680 nm) of each well was measured using a Molecular Devices SpectraMAX ® iD5.

In a further assay the target is T2, Siglec-7-Fc WT (Homo sapiens, UniProt Q9Y286).
T2 construct: the Siglecs as Fc chimeras; made in house; host or cells: WT CHO cells
Description: Liposome over lectin assay (LOLA). The format is binding. The conditions noted are these: Siglec-7 WT; replicates. Here is the method: as §1, §2, §3

Another assay concerns the target T3, Siglec-6-Fc WT (Homo sapiens, UniProt O43699).
T3 construct: the Siglecs as Fc chimeras; made in house; host or cells: WT CHO cells
Description: Liposome over lectin assay (LOLA). The format is binding. The conditions noted are these: Siglec-6 WT; replicates. How it is done:
as §1, §2, §3

A further assay addresses Siglec-1-Fc WT (Homo sapiens, UniProt Q9BZZ2). Description: Liposome over lectin assay (LOLA). It is filed as binding. The conditions noted are these: Siglec-1 WT; replicates. Here is the method:
as §1, §2, §3

The target in a further assay is T4, R122A Siglec-6-Fc (Homo sapiens, UniProt O43699, R122A).
T4 construct: the Siglecs as Fc chimeras; made in house; host or cells: WT CHO cells
Description: Liposome over lectin assay (LOLA). It is filed as binding. To be noted: Siglec-6 R (arginine mutant); replicates. How it is done: as §1, §2, §3

Assay [1] has as its target T5, CHO cells expressing Siglec-1 (Homo sapiens, UniProt Q9BZZ2).
T5 construct: expressed in transfected cells
Briefly: Liquid glycan array (LiGA) binding read out by next-generation sequencing. It is filed as cell-based. The conditions noted are these: for LiGA signal at 0.019: Figure S9, 0.019; for LiGA signal at 0.034: Figure S9, 0.034; for LiGA signal at 0.06: Figure S9, 0.06; for LiGA signal at 0.048: Figure S9, first column 0.048; for LiGA: ganglioside oligosaccharide on phage binding to Siglec-1 CHO cells (Fig. 1e): replicates; for LiGA signal at 0.041: Figure S9, 0.041; for density at which LiGA binding to Siglec-1 CHO cells was maximal: oligosaccharide on phage. Here is the method: (§4) Solution of five SDB phage clones (10^12−10^13 PFU/mL in PBS) was combined in equal amounts (50 µL) to create a multiplexed silent barcode (MSDB). Twenty-four such MSDB were created and combined DBCO-NHS (50 mM in DMF) to afford a final concentration ranging from 0.25 to 2 mM. The reaction was incubated for 45 min at room temperature. The conjugates were purified by Zeba™ Spin Desalting column (7 kDa MWCO, 0.5 mL, Thermo Fisher) and pVIII modification rate was confirmed by MAL/DI using a previously reported protocol. Typically, 1 mM DBCO-NHS yields 25% of pVIII modification after 45 min incubation. Six MSDB were combined and a solution of azido-glycans (10 mM stock in Nuclease Free H2O) was added to the solution to afford a 2 mM concentration of glycan-azide and the solutions were further incubated overnight at 4 °C. The glycan conjugation was confirmed using MALDI-TOF. The conjugates were purified by Zeba column and supplemented with glycerol and stored as 50% glycerol stock at −20 °C. LiGA mixture was prepared by combining these solutions.
as §4, with “The solution of five” for “Solution of five”, “Fisher) and the pVIII modification” for “Fisher) and pVIII modification”
Confluent CHO cells expressing Siglec-1 or UT CHO cells were detached using PBS plus 5 mM EDTA and washed with PBS (2 × 5 mL). Suspension of at 2 × 10^6 cells in HEPES-1, % BSA (20 mM HEPES, 150 mM NaCl, 2 mM CaCl2, pH 7.4, 1% BSA) in a round bottom 3 mL tube (Corning, #352054) was combined with LiGA (10^8 PFU) and incubated for 1 h at 4 °C. The cells were then washed with HEPES-0.1% BSA in (2 × 3 mL) and HEPES buffer (1 × 1 mL). The washed cell pellet was resuspended in 30 µL nuclease-free H2O. The solution was incubated at 90 °C for 15 min, centrifuged at 21,000 × g for 10 min, and 25 µL of the supernatant was used for PCR and sequencing.

The mark [2] stands for this setting: oligosaccharide density 0.008 Ligand/nm2.
Where [3] appears, read: oligosaccharide density 0.019 Ligand/nm2.
[4] abbreviates: oligosaccharide density 0.034 Ligand/nm2.
Where [5] appears, read: oligosaccharide density 0.041 Ligand/nm2.
The mark [6] stands for this setting: oligosaccharide density 0.048 Ligand/nm2.
The mark [7] stands for this setting: oligosaccharide density 0.06 Ligand/nm2.

Where “and” joins values, the source holds several entries; their conditions need not be identical. Equal entries are not always repeated.

T2 sequence (Q9Y286 19-353 limits assumed): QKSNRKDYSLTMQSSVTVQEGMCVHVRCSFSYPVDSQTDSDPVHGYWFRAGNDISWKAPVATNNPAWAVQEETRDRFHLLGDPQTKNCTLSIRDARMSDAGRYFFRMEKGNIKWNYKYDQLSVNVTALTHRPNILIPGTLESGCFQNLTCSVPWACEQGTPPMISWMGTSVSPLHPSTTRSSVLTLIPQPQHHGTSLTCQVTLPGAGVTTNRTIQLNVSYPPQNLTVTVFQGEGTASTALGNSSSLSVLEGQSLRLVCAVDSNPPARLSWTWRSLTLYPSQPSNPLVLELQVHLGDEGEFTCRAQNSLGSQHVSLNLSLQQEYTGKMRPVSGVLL
Chain of Siglec-1-Fc WT (Q9BZZ2 20-136 limits assumed): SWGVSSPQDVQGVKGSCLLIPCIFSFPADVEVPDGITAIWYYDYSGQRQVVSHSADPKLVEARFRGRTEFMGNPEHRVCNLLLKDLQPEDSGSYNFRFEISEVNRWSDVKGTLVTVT
T1 sequence (Q9Y286 19-353 R124A limits assumed): as the sequence (Q9Y286 19-353 limits assumed) above, with R106A counted along it
T4 sequence (O43699 27-347 R122A limits assumed): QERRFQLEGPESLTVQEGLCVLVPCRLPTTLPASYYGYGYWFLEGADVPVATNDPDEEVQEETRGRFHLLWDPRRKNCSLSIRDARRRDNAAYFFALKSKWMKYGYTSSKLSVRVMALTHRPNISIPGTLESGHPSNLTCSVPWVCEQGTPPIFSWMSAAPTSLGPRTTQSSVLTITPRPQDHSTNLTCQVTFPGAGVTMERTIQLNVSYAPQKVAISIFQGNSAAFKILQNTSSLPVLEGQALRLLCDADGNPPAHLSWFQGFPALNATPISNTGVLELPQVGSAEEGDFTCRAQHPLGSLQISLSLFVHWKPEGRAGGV
T3 sequence (O43699 27-347 limits assumed): as the sequence (O43699 27-347 R122A limits assumed) above, with A96R counted along it
T5 sequence (Q9BZZ2 20-1709): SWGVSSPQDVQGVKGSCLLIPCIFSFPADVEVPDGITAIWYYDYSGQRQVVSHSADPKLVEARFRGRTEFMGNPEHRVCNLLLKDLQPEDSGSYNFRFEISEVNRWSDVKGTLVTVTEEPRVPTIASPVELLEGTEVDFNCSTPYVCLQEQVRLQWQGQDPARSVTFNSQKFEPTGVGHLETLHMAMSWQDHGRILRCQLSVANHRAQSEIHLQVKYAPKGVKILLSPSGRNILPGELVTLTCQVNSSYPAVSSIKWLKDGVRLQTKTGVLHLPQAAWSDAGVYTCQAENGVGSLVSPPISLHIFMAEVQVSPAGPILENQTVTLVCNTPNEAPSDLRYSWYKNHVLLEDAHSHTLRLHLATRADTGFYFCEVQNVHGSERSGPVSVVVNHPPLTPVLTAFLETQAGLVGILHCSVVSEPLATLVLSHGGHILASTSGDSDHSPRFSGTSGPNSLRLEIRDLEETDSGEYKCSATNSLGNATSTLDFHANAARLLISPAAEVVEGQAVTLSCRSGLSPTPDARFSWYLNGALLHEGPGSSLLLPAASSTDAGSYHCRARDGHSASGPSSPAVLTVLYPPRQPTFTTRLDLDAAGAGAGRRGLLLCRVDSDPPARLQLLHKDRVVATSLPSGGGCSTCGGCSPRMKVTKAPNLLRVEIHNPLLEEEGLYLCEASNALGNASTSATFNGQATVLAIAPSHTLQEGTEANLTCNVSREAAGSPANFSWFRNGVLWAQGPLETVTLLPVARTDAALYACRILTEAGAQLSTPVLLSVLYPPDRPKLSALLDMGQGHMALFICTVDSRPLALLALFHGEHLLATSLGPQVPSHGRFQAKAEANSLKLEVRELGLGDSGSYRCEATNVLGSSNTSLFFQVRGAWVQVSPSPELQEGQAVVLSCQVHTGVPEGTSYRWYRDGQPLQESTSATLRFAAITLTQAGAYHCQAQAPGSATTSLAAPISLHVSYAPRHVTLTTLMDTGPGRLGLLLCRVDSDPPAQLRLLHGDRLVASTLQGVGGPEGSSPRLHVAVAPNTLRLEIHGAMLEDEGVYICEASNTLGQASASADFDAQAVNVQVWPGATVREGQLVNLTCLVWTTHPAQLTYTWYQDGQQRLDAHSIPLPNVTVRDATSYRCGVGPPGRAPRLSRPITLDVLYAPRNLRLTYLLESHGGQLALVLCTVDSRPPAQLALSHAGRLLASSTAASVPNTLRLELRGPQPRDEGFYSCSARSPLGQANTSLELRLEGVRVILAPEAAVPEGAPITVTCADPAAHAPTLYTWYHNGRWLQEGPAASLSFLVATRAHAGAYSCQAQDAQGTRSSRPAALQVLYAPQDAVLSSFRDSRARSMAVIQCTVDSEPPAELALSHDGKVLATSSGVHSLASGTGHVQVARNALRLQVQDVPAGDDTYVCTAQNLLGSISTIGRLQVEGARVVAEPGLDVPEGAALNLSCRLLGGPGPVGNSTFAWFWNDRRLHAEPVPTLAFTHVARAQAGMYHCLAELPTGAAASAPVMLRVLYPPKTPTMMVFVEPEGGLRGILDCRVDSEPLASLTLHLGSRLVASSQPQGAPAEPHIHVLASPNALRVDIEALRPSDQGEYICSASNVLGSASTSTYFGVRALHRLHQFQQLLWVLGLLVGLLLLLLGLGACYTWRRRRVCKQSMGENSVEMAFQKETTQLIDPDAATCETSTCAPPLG

On to GM1, for which the “LOLA: GLL binding, fluorescence plate reader (Fig. 2e)” value (“LOLA: GLL binding” below) on Siglec-7-Fc R124A is 2.83 and 4.02 and 10.31 and 3.55 and 12.57; on Siglec-7-Fc WT, 6.49 and 5.21 and 2.94 and 8.58 and 5.66; on Siglec-6-Fc WT, 18.34 and 20.42 and 17.75 and 12.02 and 17.78; on Siglec-1-Fc WT it was 5.66 and 12.97 and 11.61 and 4.8 and 8.91; at R122A Siglec-6-Fc it was 17.43 and 40.61 and 36.66 and 31.85 and 32.16. Besides, in assay [1], the “LiGA signal at 0.019” value was 0.643 and 0.783 and 0.76 and 0.6. Further, the “LiGA signal at 0.034” value in assay [1] is 0.857 and 0.909 and 0.746 and 0.756 and 0.912. In addition, the “LiGA signal at 0.06” value in assay [1] was 1.503 and 0.848 and 1.103 and 0.902 and 1.094. Moreover, the “LiGA signal at 0.048” value in assay [1] is 0.51 and 0.478 and 0.553 and 0.673. Further, the “LiGA: ganglioside oligosaccharide on phage binding to Siglec-1 CHO cells (Fig. 1e)” value (“LiGA: ganglioside oligosaccharide” for short) in assay [1] (setting [2]) was 0.12 and 0.09 (2×) and 0.04; in assay [1] (setting [3]), 0.08 (2×) and 0.1 (2×); in assay [1] (setting [4]) it was 0.11 and 0.12 (2×) and 0.1 (2×); in assay [1] (setting [5]) it was 0.07 (3×) and 0.08; in assay [1] (setting [6]) it was 0.07 (2×) and 0.06 and 0.09; in assay [1] (setting [7]), 0.19 and 0.11 and 0.14 (2×) and 0.12.
For GD3, the “LOLA: GLL binding” value was -0.64 and 18.58 and 8.22 and 12.6 and 8.15 on Siglec-7-Fc R124A; 10.57 and 10.04 and 18 and 18.66 and 20.44 on Siglec-7-Fc WT; 33.08 and 30.39 and 25.39 and 23.72 and 21.46 at Siglec-6-Fc WT; 9.49 and 6.85 and 10.11 and 9.9 and 7.11 on Siglec-1-Fc WT; 36.87 and 29.95 and 29.9 and 34.98 and 32.24 at R122A Siglec-6-Fc.
In the case of GM3, the “LiGA signal at 0.034” value in assay [1] was 0.358 and 0.619 and 0.601 and 0.534. Further, the “LiGA signal at 0.041” value in assay [1] is 0.827 and 1.082 and 1.01 and 1.1 and 0.616. Besides, the “LiGA signal at 0.048” value in assay [1] was 0.881 and 0.783 and 0.773 and 1.152. The “LiGA: ganglioside oligosaccharide” value in assay [1] (setting [2]) was 0.19 and 0.09 and 0.07 and 0.1 and 0.08; in assay [1] (setting [3]) it was 0.12 and 0.11 and 0.1 and 0.19 and 0.05; in assay [1] (setting [4]), 0.05 and 0.08 (2×) and 0.07; in assay [1] (setting [5]), 0.11 and 0.14 (2×) and 0.13 and 0.08; in assay [1] (setting [6]) it was 0.11 and 0.1 (2×) and 0.15; in assay [1] (setting [7]), 0.13 and 0.15 and 0.07 and 0.06.
With GM2, the “LiGA signal at 0.019” value in assay [1] was 0.917 and 0.919 and 0.922 and 1.035 and 1.785. For the same substance, the “LiGA signal at 0.06” value in assay [1] was 5.095 and 7.961 and 4.56 and 5.475. For the same substance, the “LiGA signal at 0.048” value in assay [1] was 6.111 and 6.403 and 6.572 and 7.724 and 12.213. For the same substance, the “LiGA: ganglioside oligosaccharide” value was 0.1 (2×) and 0.05 and 0.07 in assay [1] (setting [2]); 0.12 (3×) and 0.13 and 0.23 in assay [1] (setting [3]); 0.71 and 1.24 and 1.08 and 1.35 and 0.62 in assay [1] (setting [4]); 0.82 and 0.84 and 0.99 and 0.78 in assay [1] (setting [6]); 1.02 and 0.58 and 0.7 and 0.65 in assay [1] (setting [7]). Also, the “density at which LiGA binding to Siglec-1 CHO cells was maximal” value in assay [1] was ~ 26 nm^2/ligand.
As to GQ1b, the “LOLA: GLL binding” value at Siglec-7-Fc R124A was 6.14 and 4.56 and 5.96 and 16.03 and 20.32; at Siglec-7-Fc WT, 15.3 and 24.18 and 22.56 and 26.04 and 30.34; on Siglec-6-Fc WT it was 19.03 and 15.89 and 21.18 and 22.9 and 35.39; on Siglec-1-Fc WT, 10.86 and 11.87 and 9.36 and 23.13 and 11.98; at R122A Siglec-6-Fc it was 25.13 and 35.2 and 35.69 and 28.06 and 30.69.
With GD1a, the “LOLA: GLL binding” value is 6.47 and 10.42 and 11.8 and 5.25 and 10.13 at Siglec-7-Fc R124A; 7.1 and 6.68 and 9.94 and 10.73 and 13.26 on Siglec-7-Fc WT; 28.61 and 32.95 and 30.67 and 25.13 and 23.55 at Siglec-6-Fc WT; 13.17 and 9.49 and 10.37 and 14.33 and 18.05 at Siglec-1-Fc WT; 37.34 and 37.32 and 38.57 and 41.15 and 44.1 at R122A Siglec-6-Fc. Further, the “LiGA signal at 0.034” value in assay [1] is 3.442 and 2.502 and 3.222 and 3.062 and 2.777. Further, the “LiGA signal at 0.041” value in assay [1] is 1.814 and 2.04 and 1.9 and 2.274 and 1.639. Further, in assay [1], the “LiGA signal at 0.048” value is 1.684 and 1.501 and 1.621 and 1.606. Besides, the “LiGA signal at 0.066” value in assay [1] (Figure S9, first column 0.066) is 2.309 and 1.395 and 2.352 and 2.266. Moreover, the “LiGA: ganglioside oligosaccharide” value in assay [1] (setting [2]) was 0.05 (4×) and 0.04; in assay [1] (setting [3]), 0.2 and 0.13 and 0.03 and 0.15; in assay [1] (setting [4]), 0.41 and 0.39 and 0.36 and 0.44 and 0.32; in assay [1] (setting [5]), 0.24 and 0.29 and 0.21 and 0.23 and 0.26; in assay [1] (setting [6]) it was 0.19 and 0.21 (2×) and 0.22 and 0; in assay [1] (oligosaccharide density 0.066 Ligand/nm2) it was 0.18 and 0.3 (2×) and 0.29. For the same substance, the “density at which LiGA binding to Siglec-1 CHO cells was maximal” value in assay [1] was ~ 26 nm^2/ligand.
